In patent US9096615B2, “Bridged bicyclic amino thiazine dioxide compounds as inhibitors of beta-secretase and methods of use thereof” (AMGEN INC., priority 2013, dated 2015) one finds IC50 data, which are given here for 15 compounds.

One assay deals with BACE1 (Homo sapiens, UniProt P56817). The experiment in a line: In vitro enzymatic BACE FRET assay. The format is biochemical. The protocol: In Vitro Enzymatic BACE FRET (Fluorescence Resonance Energy Transfer) Assay
Enzyme Assay Data in the Example Table I
The assay buffer used in this screen is 0.05 M acetate, pH 4.2, 10% DMSO final, 100 uM genapol (which is a nonionic detergent, below its Critical Micelle Concentration). The Beta Secretase enzyme (0.2 nM) is pre-incubated for one hour with inhibitors, typically in about 1 uL of DMSO according to a serial dilution, are added thereto. This assay is effectively started by the addition of FRET substrate (50 nM) and the combination is incubated for one hour. The FRET assay is terminated with by addition of Tris buffer, which raises the pH to neutrality, and the fluorescence is determined. The FRET substrate is a peptide with commercially available fluorophore and quencher, on opposite sides of the BACE cleavage site. Proteolytic cleavage of the FRET substrate releases quenching of fluorescence (excitation 488 nm and […]).

The test system of assay [1] is Aβ40 in conditioned medium of cells stably expressing Amyloid Precursor Protein (APP). The experiment in a line: In vitro BACE cell-based assay (HEK cell assay, Aβ40 sandwich ELISA). To be noted: Homo sapiens, HEK293. The protocol:
In Vitro BACE Cell-Based Assay
The cell-based assay measures inhibition or reduction of Aβ40 in conditioned medium of test compound treated cells expressing amyloid precursor protein.
Cells stably expressing Amyloid Precursor Protein (APP) were plated at a density of 40K cells/well in 96 well plates (Costar). The cells were cultivated for 24 hours at 37° C. and 5% CO2 in DMEM supplemented with 10% FBS. The test compounds were then added to cells in 10-point dose response concentrations with the starting concentration being either 100 μM or 10 μM. The compounds were diluted from stock solutions in DMSO and the final DMSO concentration of the test compounds on cells was 0.1%. After 24 h of incubation with the test compounds the supernatant conditioned media was collected and the Aβ 40 levels were determined using a sandwich ELISA. The IC50 of the compound was calculated from the percent of control or percent inhibition of Aβ 40 as a function of the concentration of the test compound.
The sandwich ELISA to detect Aβ 40 was performed in 96 well microtiter plates, which were pre-treated with goat anti-rabbit IgG (Pierce). The capture and detecting antibody pair that were used to detect Aβ 40 from cell supernatants were affinity purified pAb40 (Biosource) and biotinylated 6E10 (Signet Labs Inc.), respectively. The optimal concentration for the pAb40 antibody was 3 μg/ml in Superblock/TBS (Pierce) that was supplemented with 0.05% Tween 20 (Sigma). Optimal concentration for the detection antibody 6E10-biotinylated was 0.5 μg/ml in Superblock/TBS (Pierce) that had been supplemented with 2% normal goat serum and 2% normal mouse serum.
Cellular supernatants were incubated with the capture antibody for 3 h at 4° C., followed by 3 wash steps in TBS-tween (0.05%). The detecting antibody incubation was for 2 h at 4° C., again followed by the wash steps as described previously. The final readout of the ELISA is Time-Resolved Fluorescence (counts per minute) using Delfia reagents Streptavidin-Europium and Enhancement solutions (Perkin Elmer) and the Victor 2 multilabel counter (Perkin Elmer).

The next assay addresses T1, Cathepsin D (Cat D) (Homo sapiens, UniProt P07339).
T1 construct: made in house; host or cells: CHO cells
The experiment in a line: In vitro enzymatic Cathepsin D (Cat D) FRET assay. The format is biochemical. To be noted: read-out: CatD IC50. As for the experimental part: In Vitro Enzymatic Cathepsin D (Cat D) FRET (Fluorescence Resonance Energy Transfer) Assay
Recombinant Cat D was expressed in CHO cells. The assay buffer for CathepsinD is 0.05 M citrate pH 3.5, 10% DMSO final, 5 mM CHAPS. The Cat D enzyme (9 nM) is pre-incubated for one hour with inhibitors, typically in about 1 uL of DMSO according to a serial dilution, is added thereto. The assays are effectively started by the addition of different FRET substrates (20 nM for Cat D) and the combination is incubated for one hour. The FRET assay is terminated with by addition of Tris buffer, which raises the pH to neutrality, and the fluorescence is determined. The FRET substrate is a peptide with commercially available fluorophore and quencher, on opposite sides of the BACE cleavage site. The Cat D substrate peptide sequence is based on sequence #1 of Table 1 from Gulnik et al. FEBS Letters v413 p 379-384 1997. Proteolytic cleavage of the FRET substrate releases quenching of fluorescence (Cat D excitation 500 nm and emission 580 nm). […]
Where available, the in-vitro Cat D FRET assay data for each of the Examples, conducted by the first procedure, is provided in Tables 1 and 3. For example, the compound of example 28 has a Cat D IC50 value of >400 uM.

Setting [2] is: average IC50, read-out: BACE1 Enzyme assay IC50.
The mark [3] stands for this setting: average IC50, read-out: BACE1 cell assay IC50.
[4] abbreviates: read-out: BACE1 FRET assay IC50.
[5] abbreviates: Aβ40, 24 h incubation, read-out: HEK cell assay IC50.

pIC50: −log10 of the molar value. Read-outs that look alike come from different tables or passages of the source. Some results are limits rather than exact numbers.

T1 sequence (P07339 65-412, species assumed): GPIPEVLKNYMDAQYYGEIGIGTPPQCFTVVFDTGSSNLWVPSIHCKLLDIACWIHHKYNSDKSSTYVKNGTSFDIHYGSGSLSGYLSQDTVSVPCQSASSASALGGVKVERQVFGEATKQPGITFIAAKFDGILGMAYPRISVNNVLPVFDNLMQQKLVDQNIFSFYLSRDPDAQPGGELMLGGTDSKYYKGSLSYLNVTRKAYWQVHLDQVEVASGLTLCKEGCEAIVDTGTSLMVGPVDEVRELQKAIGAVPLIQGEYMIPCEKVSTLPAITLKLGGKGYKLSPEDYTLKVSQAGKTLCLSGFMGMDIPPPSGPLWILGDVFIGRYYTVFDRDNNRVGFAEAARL
Chain of BACE1 (P56817 46-501, species assumed): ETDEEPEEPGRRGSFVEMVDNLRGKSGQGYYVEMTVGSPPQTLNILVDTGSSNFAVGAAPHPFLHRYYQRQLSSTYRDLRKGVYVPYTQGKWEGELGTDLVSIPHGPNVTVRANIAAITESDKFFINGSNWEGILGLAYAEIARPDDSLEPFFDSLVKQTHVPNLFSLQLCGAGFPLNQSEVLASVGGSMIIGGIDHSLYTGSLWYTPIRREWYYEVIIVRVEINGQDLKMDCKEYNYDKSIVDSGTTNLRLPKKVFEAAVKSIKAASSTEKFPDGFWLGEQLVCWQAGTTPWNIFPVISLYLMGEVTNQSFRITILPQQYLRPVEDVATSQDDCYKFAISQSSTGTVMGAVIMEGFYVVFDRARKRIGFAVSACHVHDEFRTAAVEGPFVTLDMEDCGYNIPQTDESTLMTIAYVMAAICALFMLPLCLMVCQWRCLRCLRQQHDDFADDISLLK

As to `COCc1ccc(C(=O)Nc2ccc(F)c([C@@]3(C)N=C(N)[C@]4(C)CC[C@H]3S4(=O)=O)c2)nc1` [Example 91, N-(3-((1R,2R,5S)-4-amino-2,5-dimethyl-8,8-dioxido-8-thia-3-azabicyclo[3.2.1]oct-3-en-2-yl)-4-fluorophenyl)-5-(methoxymethyl)-2-pyridinecarboxamide], the negative logarithm of the IC50 (pIC50) (usually −log10 of the IC50, conventionally taken in molar units) on BACE1 (setting [2]) is 6.59; in assay [1] (setting [3]), 7.34; on Cathepsin D (Cat D) (average IC50, first procedure) it was 2.49.
For `COc1cnc(C(=O)Nc2ccc(F)c([C@@]3(CF)N=C(N)[C@]4(C)CC[C@H]3S4(=O)=O)c2)cn1` [Example 75, N-(3-((1R,2S,5S)-4-amino-2-(fluoromethyl)-5-methyl-8,8-dioxido-8-thia-3-azabicyclo[3.2.1]oct-3-en-2-yl)-4-fluorophenyl)-5-methoxy-2-pyrazinecarboxamide] the same measures were 7.01, 7.02 and less than 3.40.
With `COc1cnc2c(Nc3ccc(F)c([C@@]4(C)N=C(N)[C@]5(C)CCC[C@H]4S5(=O)=O)c3)nccc2n1` [Example 2, (1S,4R,5R)-2-Amino-4-(2-fluoro-5-((2-methoxypyrido[3,4-b]pyrazin-5-yl)amino)phenyl)-1,4-dimethyl-9-thia-3-azabicyclo[3.3.1]non-2-ene 9,9-dioxide], the negative-log IC50 (pIC50) was 6.89 on BACE1 (setting [4]), 7.26 in assay [1] (setting [5]) and 3.78 on Cathepsin D (Cat D).
In the case of `COc1cnc(C(=O)Nc2ccc(F)c([C@@]3(CF)N=C(N)[C@@]4(C)CC[C@@H]3S4(=O)=O)c2)cn1` (single isomer, unassigned) [Example 120], the negative-log IC50 (pIC50) at BACE1 (setting [2]) is 7.31; in assay [1] (setting [3]), 7.06; at Cathepsin D (Cat D) (average IC50, first procedure) it was less than 3.40.
As to `CC#CCOc1cnc2c(Nc3ccc(F)c([C@@]4(C)N=C(N)[C@@]5(C)CC[C@@H]4S5(=O)=O)c3)ncc(F)c2c1` [Example 134, N-(3-((1S,2R,5R)-4-amino-2,5-dimethyl-8,8-dioxido-8-thia-3-azabicyclo[3.2.1]oct-3-en-2-yl)-4-fluorophenyl)-3-(2-butyn-1-yloxy)-5-fluoro-1,7-naphthyridin-8-amine], the pIC50 was 9.00 on BACE1 (setting [2]); 8.40 in assay [1] (setting [3]); 2.79 on Cathepsin D (Cat D) (average IC50, first procedure).
`COc1cnc2c(Nc3ccc(F)c([C@@]4(C)N=C(N)[C@]5(C)CC[C@H]4S5(=O)=O)c3)ncnc2c1` [Example 133, N-(3-((1R,2R,5S)-4-amino-2,5-dimethyl-8,8-dioxido-8-thia-3-azabicyclo[3.2.1]oct-3-en-2-yl)-4-fluorophenyl)-7-methoxypyrido[3,2-d]pyrimidin-4-amine]: the negative-log IC50 (pIC50) on BACE1 (setting [2]) was 7.02; in assay [1] (setting [3]), 7.59; on Cathepsin D (Cat D) (average IC50, first procedure), 2.93.
For `C[C@]12CC[C@](C)([C@@](C)(c3cc(Nc4ncc(F)c5cc(Cl)cnc45)ccc3F)N=C1N)S2(=O)=O` [Example 51, N-(3-((1R,2R,5S)-4-amino-1,2,5-trimethyl-8,8-dioxido-8-thia-3-azabicyclo[3.2.1]oct-3-en-2-yl)-4-fluorophenyl)-3-chloro-5-fluoro-1,7-naphthyridin-8-amine], the pIC50 on BACE1 (setting [2]) is 7.96; in assay [1] (setting [3]), 6.42; on Cathepsin D (Cat D) (average IC50, first procedure), 4.67.
For `Cc1cc(Cl)cnc1C(=O)Nc1ccc(F)c([C@@]2(C)N=C(N)[C@@]3(C)CCC[C@]2(F)S3(=O)=O)c1` [Example 7, N-(3-((1S,2R,5R)-4-Amino-1-fluoro-2,5-dimethyl-9,9-dioxido-9-thia-3-azabicyclo[3.3.1]non-3-en-2-yl)-4-fluorophenyl)-5-chloro-3-methylpicolinamide], the results for the negative-log IC50 (pIC50) (on BACE1 (setting [4]); in assay [1] (setting [5]); on Cathepsin D (Cat D)) were 8.15, 6.66 and 4.65, respectively.
For `Cc1cc(Cl)cnc1C(=O)Nc1ccc(F)c([C@@]2(C)N=C(N)[C@H]3CCC[C@@H]2S3(=O)=O)c1` [Example 20, N-(3-((1S,2R,5R)-4-Amino-2-methyl-9,9-dioxido-9-thia-3-azabicyclo[3.3.1]non-3-en-2-yl)-4-fluorophenyl)-5-chloro-3-methylpicolinamide] the same measures were 8.52, 8.22 and 3.14.
For `C[C@]1(c2cc(Nc3ncc(F)c4cc(Cl)cnc34)ccc2F)N=C(N)[C@@]2(C)CC[C@@H]1S2(=O)=O` [Example 29, (1R,4R,5S)-2-Amino-4-(5-((3-chloro-5-fluoro-1,7-naphthyridin-8-yl)amino)-2-fluorophenyl)-1,4-dimethyl-8-thia-3-azabicyclo[3.2.1]oct-2-ene 8,8-dioxide] the same measures were 9.00, 7.28 and 3.13.
`C[C@]12CC[C@H]([C@@](C)(c3cc(NC(=O)c4ccc(C#N)cc4F)ccc3F)N=C1N)S2(=O)=O` [Example 128, N-(3-((1R,2R,5S)-4-amino-2,5-dimethyl-8,8-dioxido-8-thia-3-azabicyclo[3.2.1]oct-3-en-2-yl)-4-fluorophenyl)-4-cyano-2-fluorobenzamide]: the pIC50 was 6.91 on BACE1 (setting [2]); 7.43 in assay [1] (setting [3]); less than 3.40 at Cathepsin D (Cat D) (average IC50, first procedure).
With `Cc1cc(Cl)cnc1C(=O)Nc1ccc(F)c([C@@]2(C)N=C(N)[C@]3(C)CC[C@@]2(C)S3(=O)=O)c1` [Example 32, N-(3-((1R,2R,5S)-4-amino-1,2,5-trimethyl-8,8-dioxido-8-thia-3-azabicyclo[3.2.1]oct-3-en-2-yl)-4-fluorophenyl)-5-chloro-3-methylpicolinamide], the values for the pIC50 (on BACE1 (setting [4]); in assay [1] (setting [5]); at Cathepsin D (Cat D)) were 8.15, 7.77 and 3.88, respectively.
Consider `COC[C@]12CC[C@H]([C@@](C)(c3cc(Nc4ncnc5cc(Cl)cnc45)ccc3F)N=C1N)S2(=O)=O` [Example 141, N-(3-((1R,2R,5S)-4-amino-5-(methoxymethyl)-2-methyl-8,8-dioxido-8-thia-3-azabicyclo[3.2.1]oct-3-en-2-yl)-4-fluorophenyl)-7-chloropyrido[3,2-d]pyrimidin-4-amine], for which the negative logarithm of the IC50 (pIC50) at BACE1 (setting [2]) is 6.39; in assay [1] (setting [3]), 6.49; at Cathepsin D (Cat D) (average IC50, first procedure) it was 2.93.
For `Cc1cc(OC(F)F)cnc1C(=O)Nc1ccc(F)c([C@@]2(C)N=C(N)[C@]3(C)CCC[C@H]2S3(=O)=O)c1` [Example 6, N-(3-((1R,2R,5S)-4-Amino-2,5-dimethyl-9,9-dioxido-9-thia-3-azabicyclo[3.3.1]non-3-en-2-yl)-4-fluorophenyl)-5-(difluoromethoxy)-3-methylpicolinamide], the pIC50 on BACE1 (setting [4]) is 8.00; in assay [1] (setting [5]), 8.40; at Cathepsin D (Cat D) it was 3.67.
The like results for `C[C@]12CC[C@H]([C@@](C)(c3cc(Nc4ncc(F)c5cc(Cl)cnc45)ccc3F)N=C1N)S2(=O)=O` [Example 30, N-(3-((1R,2R,5S)-4-amino-2,5-dimethyl-8,8-dioxido-8-thia-3-azabicyclo[3.2.1]oct-3-en-2-yl)-4-fluorophenyl)-3-chloro-5-fluoro-1,7-naphthyridin-8-amine] were, in that order, 7.48, 6.79 and 2.35.
